Source: ChEMBL document CHEMBL5696441 (Nat Chem Biol, 2011)

How the values were obtained:
[1] = target: Discoidin domain-containing receptor 2 (Homo sapiens) (UniProt Q16832); assay: Inhibition of human DDR2 assessed as residual activity at 1 uM using poly(Ala,Glu,Lys,Tyr)6:2:5:1 as substrate in presence of 33P-ATP by ProQinase assay relative to control
[2] = target: Tyrosine-protein kinase receptor UFO (Homo sapiens) (UniProt P30530); assay: Inhibition of human AXL assessed as residual activity at 1 uM using polyEy as substrate in presence of 33P-ATP by ProQinase assay relative to control
Sequence of Tyrosine-protein kinase receptor UFO (Homo sapiens) (P30530 whole entry): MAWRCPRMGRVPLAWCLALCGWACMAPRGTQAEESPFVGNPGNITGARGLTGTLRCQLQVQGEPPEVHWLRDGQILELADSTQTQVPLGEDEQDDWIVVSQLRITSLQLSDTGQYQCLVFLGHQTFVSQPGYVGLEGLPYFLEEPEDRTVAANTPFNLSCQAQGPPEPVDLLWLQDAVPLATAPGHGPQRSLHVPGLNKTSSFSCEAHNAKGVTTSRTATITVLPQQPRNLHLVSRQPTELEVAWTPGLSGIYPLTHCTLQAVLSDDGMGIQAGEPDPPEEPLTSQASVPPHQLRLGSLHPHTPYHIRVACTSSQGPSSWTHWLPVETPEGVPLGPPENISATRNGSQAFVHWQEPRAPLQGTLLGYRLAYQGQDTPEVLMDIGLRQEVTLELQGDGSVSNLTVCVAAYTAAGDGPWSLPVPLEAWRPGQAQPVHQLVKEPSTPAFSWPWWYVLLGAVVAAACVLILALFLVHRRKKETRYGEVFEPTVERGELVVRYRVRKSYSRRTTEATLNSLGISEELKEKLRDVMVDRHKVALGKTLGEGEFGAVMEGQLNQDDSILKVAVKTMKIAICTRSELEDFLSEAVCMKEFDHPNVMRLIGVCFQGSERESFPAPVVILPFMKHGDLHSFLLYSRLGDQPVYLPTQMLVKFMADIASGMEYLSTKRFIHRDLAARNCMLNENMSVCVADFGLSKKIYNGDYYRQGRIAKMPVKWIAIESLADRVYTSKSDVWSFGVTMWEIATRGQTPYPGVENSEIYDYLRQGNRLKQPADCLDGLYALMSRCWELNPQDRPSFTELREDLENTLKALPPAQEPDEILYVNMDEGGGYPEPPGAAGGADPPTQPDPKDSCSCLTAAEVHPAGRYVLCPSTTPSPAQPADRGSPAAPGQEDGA

[3] = tested on: Hepatocyte growth factor receptor (Homo sapiens), P08581 [Y1230H]; assay: Inhibition of human MET Y1230H mutant assessed as residual activity at 1 uM using poly(Ala,Glu,Lys,Tyr)6:2:5:1 as substrate in presence of 33P-ATP by ProQinase assay relative to control
[4] = target: Death-associated protein kinase 2 (Homo sapiens) (UniProt Q9UIK4); assay: Inhibition of human DAPK2 assessed as residual activity at 1 uM using RB-S6P as substrate in presence of 33P-ATP by ProQinase assay relative to control
Sequence of Death-associated protein kinase 2 (Homo sapiens) (Q9UIK4 whole entry, looked up): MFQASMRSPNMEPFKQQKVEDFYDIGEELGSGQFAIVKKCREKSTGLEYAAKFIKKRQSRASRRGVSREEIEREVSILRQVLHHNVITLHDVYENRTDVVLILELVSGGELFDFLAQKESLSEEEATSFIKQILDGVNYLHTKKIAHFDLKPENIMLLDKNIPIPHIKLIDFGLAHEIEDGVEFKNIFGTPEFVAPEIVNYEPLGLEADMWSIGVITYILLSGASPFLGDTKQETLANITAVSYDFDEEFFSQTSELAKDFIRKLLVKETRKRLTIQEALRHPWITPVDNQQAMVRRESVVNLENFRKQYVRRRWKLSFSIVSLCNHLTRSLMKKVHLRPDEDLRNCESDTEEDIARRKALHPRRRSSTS

[5] = tested on: Epidermal growth factor receptor (Homo sapiens), P00533 [L861Q]; assay: Inhibition of human EGFR L861Q mutant assessed as residual activity at 1 uM using PolyEY as substrate in presence of 33P-ATP by ProQinase assay relative to control
[6] = target: Dual specificity mitogen-activated protein kinase kinase 1 (Homo sapiens) (UniProt Q02750); assay: Inhibition of human MEK1 assessed as residual activity at 1 uM using ERK2-KR as substrate in presence of 33P-ATP by ProQinase assay relative to control
[7] = target: CDK8/Cyclin C (Homo sapiens) (UniProt P49336+P24863); assay: Inhibition of human CDK8/CyclinC assessed as residual activity at 1 uM using RBER-CHKtide as substrate in presence of 33P-ATP by ProQinase assay relative to control; format: protein-complex assay
[8] = target: Ephrin type-A receptor 8 (Homo sapiens) (UniProt P29322); assay: Inhibition of EPHA8 (unknown origin) assessed as remaining activity at 1 uM by Kinome scan method relative to control
[9] = target: Protein-tyrosine kinase 2-beta (Homo sapiens) (UniProt Q14289); assay: Inhibition of PYK2 (unknown origin) assessed as remaining activity at 1 uM by Kinome scan method relative to control
[10] = target: Serine/threonine-protein kinase N1 (Homo sapiens) (UniProt Q16512); assay: Inhibition of human PRK1 assessed as residual activity at 1 uM using RBER-CHKtide as substrate in presence of 33P-ATP by ProQinase assay relative to control
[11] = target: Protein kinase C alpha type (Homo sapiens) (UniProt P17252); assay: Inhibition of human PKCalpha assessed as residual activity at 1 uM using 3xChocktide-PKC(19-31) as substrate in presence of 33P-ATP by ProQinase assay relative to control
[12] = target: T1, Aurora kinase A (Homo sapiens) (UniProt O14965); assay: Inhibition of human AuroraA assessed as residual activity at 1 uM using bio-4xCHKT as substrate in presence of 33P-ATP by ProQinase assay relative to control
T1 sequence (whole entry): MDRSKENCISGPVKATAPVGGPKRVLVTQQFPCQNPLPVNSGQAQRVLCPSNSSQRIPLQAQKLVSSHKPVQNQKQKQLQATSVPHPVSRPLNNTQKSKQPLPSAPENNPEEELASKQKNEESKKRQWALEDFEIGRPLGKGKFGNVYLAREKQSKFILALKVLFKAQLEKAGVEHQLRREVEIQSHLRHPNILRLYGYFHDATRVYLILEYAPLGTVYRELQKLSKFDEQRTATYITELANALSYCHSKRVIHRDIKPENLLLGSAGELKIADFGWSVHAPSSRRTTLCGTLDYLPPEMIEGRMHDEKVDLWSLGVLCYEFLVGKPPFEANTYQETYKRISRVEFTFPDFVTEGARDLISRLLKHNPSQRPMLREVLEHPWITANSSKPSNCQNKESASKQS

[13] = target: Ephrin type-B receptor 3 (Homo sapiens) (UniProt P54753); assay: Inhibition of EPHB3 (unknown origin) assessed as remaining activity at 1 uM by Kinome scan method relative to control
Sequence of Ephrin type-B receptor 3 (Homo sapiens) (P54753 whole entry): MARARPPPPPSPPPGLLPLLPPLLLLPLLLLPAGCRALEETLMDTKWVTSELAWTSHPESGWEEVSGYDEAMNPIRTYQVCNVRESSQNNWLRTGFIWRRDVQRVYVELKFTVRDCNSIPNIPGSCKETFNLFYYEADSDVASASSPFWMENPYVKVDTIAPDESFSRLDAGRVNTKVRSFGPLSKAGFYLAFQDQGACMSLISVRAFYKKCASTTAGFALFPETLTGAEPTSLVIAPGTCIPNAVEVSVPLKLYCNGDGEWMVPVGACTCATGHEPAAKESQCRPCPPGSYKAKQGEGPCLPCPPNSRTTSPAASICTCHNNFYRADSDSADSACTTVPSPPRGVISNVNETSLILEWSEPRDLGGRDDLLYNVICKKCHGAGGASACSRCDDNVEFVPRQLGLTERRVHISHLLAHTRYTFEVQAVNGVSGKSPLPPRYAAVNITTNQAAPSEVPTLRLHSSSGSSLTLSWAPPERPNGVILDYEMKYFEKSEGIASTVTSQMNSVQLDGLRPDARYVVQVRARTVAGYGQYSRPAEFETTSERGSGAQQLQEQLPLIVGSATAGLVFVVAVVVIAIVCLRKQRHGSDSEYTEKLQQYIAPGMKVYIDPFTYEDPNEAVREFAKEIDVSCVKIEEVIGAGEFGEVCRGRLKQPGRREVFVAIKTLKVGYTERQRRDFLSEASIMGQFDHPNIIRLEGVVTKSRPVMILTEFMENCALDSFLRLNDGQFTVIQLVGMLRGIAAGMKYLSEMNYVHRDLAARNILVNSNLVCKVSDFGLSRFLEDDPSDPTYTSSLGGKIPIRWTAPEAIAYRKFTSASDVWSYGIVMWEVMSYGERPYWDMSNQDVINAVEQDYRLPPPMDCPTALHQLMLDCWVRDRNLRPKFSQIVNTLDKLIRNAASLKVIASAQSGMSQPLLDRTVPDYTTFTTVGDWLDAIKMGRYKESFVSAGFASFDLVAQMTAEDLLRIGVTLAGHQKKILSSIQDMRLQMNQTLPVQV

[14] = target: Ephrin type-B receptor 3 (Homo sapiens) (UniProt P54753); assay: Inhibition of human EPHB3 assessed as residual activity at 1 uM using polyEY as substrate in presence of 33P-ATP by ProQinase assay relative to control
[15] = target: Mitogen-activated protein kinase 15 (Homo sapiens) (UniProt Q8TD08); assay: Inhibition of ERK8 (unknown origin) assessed as remaining activity at 1 uM by Kinome scan method relative to control
Sequence of Mitogen-activated protein kinase 15 (Homo sapiens) (Q8TD08 whole entry): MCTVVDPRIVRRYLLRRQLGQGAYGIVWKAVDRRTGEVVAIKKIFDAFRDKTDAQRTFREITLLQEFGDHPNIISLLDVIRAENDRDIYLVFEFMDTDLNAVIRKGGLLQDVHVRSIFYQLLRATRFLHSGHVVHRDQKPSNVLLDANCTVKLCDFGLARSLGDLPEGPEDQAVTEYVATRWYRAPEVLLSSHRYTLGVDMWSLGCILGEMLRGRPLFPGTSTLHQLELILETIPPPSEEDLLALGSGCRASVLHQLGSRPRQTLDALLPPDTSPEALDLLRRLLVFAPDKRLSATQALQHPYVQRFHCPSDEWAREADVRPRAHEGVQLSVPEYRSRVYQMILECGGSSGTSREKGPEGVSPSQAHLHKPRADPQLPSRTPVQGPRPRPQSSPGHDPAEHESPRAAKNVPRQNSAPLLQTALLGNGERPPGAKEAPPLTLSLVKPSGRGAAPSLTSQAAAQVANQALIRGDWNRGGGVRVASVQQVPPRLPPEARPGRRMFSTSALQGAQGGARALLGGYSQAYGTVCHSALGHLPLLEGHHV

[16] = target: Activin receptor type-2B (Homo sapiens) (UniProt Q13705); assay: Inhibition of ACVR2B (unknown origin) assessed as remaining activity at 1 uM by Kinome scan method relative to control
[17] = target: Ribosomal protein S6 kinase beta-2 (Homo sapiens) (UniProt Q9UBS0); assay: Inhibition of human S6K-beta assessed as residual activity at 1 uM using RBER-CHKtide as substrate in presence of 33P-ATP by ProQinase assay relative to control
[18] = target: Proto-oncogene tyrosine-protein kinase ROS (Homo sapiens) (UniProt P08922); assay: Inhibition of human ROS assessed as residual activity at 1 uM using poly(Ala,Glu,Lys,Tyr)6:2:5:1 as substrate in presence of 33P-ATP by ProQinase assay relative to control
[19] = target: CDK4/Cyclin D3 (Homo sapiens) (UniProt P11802+P30281); assay: Inhibition of human CDK4/CycD3 assessed as residual activity at 1 uM using RBER-CHKtide as substrate in presence of 33P-ATP by ProQinase assay relative to control; format: protein-complex assay
[20] = Anti-inflammatory activity against human derived medium respond PBMC cells assessed as inhibition in stimulated IP-10 chemokine release incubated for 2 hrs in the presence of LPS/SEB/aCD28 by Luminex based sandwich immunoassay; format: functional, cell-based
[21] = target: Homeodomain-interacting protein kinase 1 (Homo sapiens) (UniProt Q86Z02); assay: Inhibition of human HIPK1 assessed as residual activity at 1 uM using RBER-CHKtide as substrate in presence of 33P-ATP by ProQinase assay relative to control
[22] = tested on: Tyrosine-protein kinase ABL1 (Homo sapiens), P00519 [H396P]; assay: Inhibition of ABL1 H396P mutant (unknown origin) assessed as remaining activity at 1 uM by Kinome scan method relative to control
[23] = target: Cyclin-dependent kinase 5/CDK5 activator 1 (Homo sapiens) (UniProt Q00535+Q15078); assay: Inhibition of human CDK5/p35NCK assessed as residual activity at 1 uM using RBER-CHKtide as substrate in presence of 33P-ATP by ProQinase assay relative to control; format: protein-complex assay
[24] = target: CDK3/Cyclin E (Homo sapiens) (UniProt P24864+Q00526); assay: Inhibition of human CDK3/CyclinE1 assessed as residual activity at 1 uM using RBER-CHKtide as substrate in presence of 33P-ATP by ProQinase assay relative to control; format: protein-complex assay
Sequence of CDK3/Cyclin E (Homo sapiens) (P24864 whole entry, looked up): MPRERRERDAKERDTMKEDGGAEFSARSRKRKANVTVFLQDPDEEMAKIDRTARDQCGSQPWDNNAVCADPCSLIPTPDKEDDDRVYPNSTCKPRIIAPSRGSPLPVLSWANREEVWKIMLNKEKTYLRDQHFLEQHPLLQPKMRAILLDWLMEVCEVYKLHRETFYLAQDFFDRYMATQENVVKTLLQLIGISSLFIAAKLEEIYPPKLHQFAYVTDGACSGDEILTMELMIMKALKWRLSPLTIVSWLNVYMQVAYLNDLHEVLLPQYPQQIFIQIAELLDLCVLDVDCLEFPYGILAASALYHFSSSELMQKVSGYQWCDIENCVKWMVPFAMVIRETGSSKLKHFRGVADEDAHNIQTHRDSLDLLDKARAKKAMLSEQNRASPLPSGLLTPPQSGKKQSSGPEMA
Sequence of CDK3/Cyclin E (Homo sapiens) (Q00526 whole entry, looked up): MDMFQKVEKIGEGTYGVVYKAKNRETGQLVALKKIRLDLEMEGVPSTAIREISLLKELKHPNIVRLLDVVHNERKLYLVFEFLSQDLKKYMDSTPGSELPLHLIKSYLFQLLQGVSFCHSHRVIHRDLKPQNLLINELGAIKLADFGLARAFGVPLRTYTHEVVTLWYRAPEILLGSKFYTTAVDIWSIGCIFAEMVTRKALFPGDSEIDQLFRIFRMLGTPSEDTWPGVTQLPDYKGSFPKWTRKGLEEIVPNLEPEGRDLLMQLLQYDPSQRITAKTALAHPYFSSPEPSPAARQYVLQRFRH

Sequence of Discoidin domain-containing receptor 2 (Homo sapiens) (Q16832 whole entry, the tested form may be a part): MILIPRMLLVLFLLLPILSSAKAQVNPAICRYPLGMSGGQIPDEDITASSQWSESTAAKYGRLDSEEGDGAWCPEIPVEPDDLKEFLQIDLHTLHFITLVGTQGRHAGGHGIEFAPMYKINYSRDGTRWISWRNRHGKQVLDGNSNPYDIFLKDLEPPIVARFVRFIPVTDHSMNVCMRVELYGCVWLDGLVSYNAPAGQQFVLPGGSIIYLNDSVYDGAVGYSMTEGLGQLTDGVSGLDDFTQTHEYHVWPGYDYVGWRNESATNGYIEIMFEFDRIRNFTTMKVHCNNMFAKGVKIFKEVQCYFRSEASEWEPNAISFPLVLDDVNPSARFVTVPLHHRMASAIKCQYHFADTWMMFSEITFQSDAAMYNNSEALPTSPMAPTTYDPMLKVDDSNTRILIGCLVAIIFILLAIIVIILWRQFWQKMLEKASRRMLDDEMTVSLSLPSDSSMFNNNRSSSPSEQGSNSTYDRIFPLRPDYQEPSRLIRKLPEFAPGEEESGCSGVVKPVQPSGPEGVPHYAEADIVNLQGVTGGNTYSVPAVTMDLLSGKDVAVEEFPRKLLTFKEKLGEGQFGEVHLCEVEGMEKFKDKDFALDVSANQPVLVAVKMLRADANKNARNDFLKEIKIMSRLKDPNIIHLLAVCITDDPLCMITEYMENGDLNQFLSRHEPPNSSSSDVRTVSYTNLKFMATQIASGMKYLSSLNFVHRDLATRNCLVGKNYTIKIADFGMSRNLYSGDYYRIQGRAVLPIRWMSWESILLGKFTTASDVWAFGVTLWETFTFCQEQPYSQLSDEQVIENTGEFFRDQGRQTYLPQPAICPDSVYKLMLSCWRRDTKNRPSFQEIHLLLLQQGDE

In the case of `O=C1c2ccc(Nc3ccc(F)cc3F)cc2CCc2ccc(OC[C@H](O)CO)cc21` [Skepinone-L], the Activity [1] is reported as 102%, the Activity [2] is reported as 100% and the Activity [3] is reported as 102%. For the same compound, the Activity [4] was 88%, the Activity [5] was 94% and the Activity [6] was 79%. For the same compound, the Activity [7] was 105%, the Activity [8] was 90% and the Activity [9] was 100%. For the same compound, the Activity [10] was 92%, the Activity [11] was 96% and the Activity [12] was 99%. For the same compound, the Activity [13] was 100%, the Activity [14] was 108% and the Activity [15] was 99%. It also gave an Activity [16] of 83%, an Activity [17] of 89% and an Activity [18] of 102%. The Activity [19] was 98%, the IC50 [20] was 5.9 µM and the Activity [21] was 98%. For the same compound, the Activity [22] was 100%, the Activity [23] was 90% and the Activity [24] was 96%.
